Legend:
H1975 cells = assay: Cell growth inhibition by MTT assay, H1975 cells; type: cell-based; details: for IC50: MTT assay, 72 hours; for Selective inhibitory activity against cell growth [IC50 (A431 cell)/IC50 (H1975 cell)]: ratio of MTT IC50 values;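 as to all read-outs here: MTT read-out in 96-well plates after 72 h compound exposure of H1975 and A431 cells, with selectivity given as the A431 IC50 divided by the H1975 IC50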
Protocol: (§1) The steps of the MTT assay were carried out using methods well known to those skilled in the art, and all the reagents used in the methods are commercially available.
(§2) After the first wash, another 1.5 mL of trypsin/EDTA was added to digest the adherent cells until the cells detached. Then 3.5 mL of the culture medium was added to terminate the digestion. The digested cell suspension was transferred to a 15 mL centrifuge tube and centrifuged at 1300 rpm for 3 minutes. The supernatant was discarded and the cells were resuspended in fresh medium. The cells were then counted and diluted to the following concentrations: 27,800 cells per milliliter of H1975 cells, 33,300 cells per milliliter of A431 cells and NIH3T3 cells (purchased from the Cell Bank of the Type Culture Collection Committee, Chinese Academy of Sciences).
(§3) After the drug was added, the cells were incubated in an incubator for 72 hours. 10 μL of 5 mg/ml MTT (Sigma, M5655) solution was added to each well. The 96-well plate was then incubated in a 37° C. and 5% CO2 incubator for 4 h.
(§4) The plate was then centrifuged at 2000 rpm for 5 min. After the supernatant was removed, 150 μl of DMSO was added to each well and the plate was shaken in a shaker until all crystal violet was dissolved.

NIH3T3 cells = assay: Toxicity test on NIH3T3 cells by MTT assay; type: cell-based
Protocol: as §1, §2, §3, §4

wild-type EGFR kinase = wild-type EGFR kinase (Homo sapiens (Human), UniProt P00533); details: read-out: EGFR WT (IC50/μM); z'-lyte assay, 10 μM ATP
wild-type EGFR kinase, sequence (P00533 25-1210): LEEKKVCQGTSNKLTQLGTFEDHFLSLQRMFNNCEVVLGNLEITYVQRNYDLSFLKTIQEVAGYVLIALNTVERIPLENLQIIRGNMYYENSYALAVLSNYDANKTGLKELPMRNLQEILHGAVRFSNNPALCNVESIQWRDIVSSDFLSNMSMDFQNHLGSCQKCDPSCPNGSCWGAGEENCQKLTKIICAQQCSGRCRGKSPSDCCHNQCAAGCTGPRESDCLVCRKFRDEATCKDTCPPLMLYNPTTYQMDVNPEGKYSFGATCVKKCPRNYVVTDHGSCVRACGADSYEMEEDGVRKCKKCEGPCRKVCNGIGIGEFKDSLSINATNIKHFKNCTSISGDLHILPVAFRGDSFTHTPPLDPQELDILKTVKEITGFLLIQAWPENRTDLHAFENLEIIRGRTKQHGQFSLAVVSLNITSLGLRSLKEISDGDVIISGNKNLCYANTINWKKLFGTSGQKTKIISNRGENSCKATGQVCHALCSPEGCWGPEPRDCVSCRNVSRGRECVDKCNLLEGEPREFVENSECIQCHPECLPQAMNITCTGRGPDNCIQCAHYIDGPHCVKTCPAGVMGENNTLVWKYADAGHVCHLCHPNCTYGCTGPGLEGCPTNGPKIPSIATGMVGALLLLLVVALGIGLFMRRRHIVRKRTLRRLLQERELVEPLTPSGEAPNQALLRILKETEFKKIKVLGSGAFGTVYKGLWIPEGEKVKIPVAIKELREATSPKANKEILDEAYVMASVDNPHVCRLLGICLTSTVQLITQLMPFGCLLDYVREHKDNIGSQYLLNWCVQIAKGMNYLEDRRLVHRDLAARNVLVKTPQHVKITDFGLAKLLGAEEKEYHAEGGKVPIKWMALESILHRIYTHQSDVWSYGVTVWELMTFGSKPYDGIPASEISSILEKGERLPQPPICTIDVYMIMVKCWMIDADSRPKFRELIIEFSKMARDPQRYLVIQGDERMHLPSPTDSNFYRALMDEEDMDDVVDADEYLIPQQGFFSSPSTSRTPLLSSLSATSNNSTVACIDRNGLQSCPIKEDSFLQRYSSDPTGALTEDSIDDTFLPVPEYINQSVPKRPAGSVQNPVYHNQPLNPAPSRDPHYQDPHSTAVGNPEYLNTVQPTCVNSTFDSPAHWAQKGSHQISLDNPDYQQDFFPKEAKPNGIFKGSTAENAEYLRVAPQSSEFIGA
Protocol: All reagents used in the following z′-lyte assay were purchased from Invitrogen.
The working concentrations of each component in 10 μL wild-type EGFR kinase reaction system were: 10 μM ATP, 0.8 ng/μL wild-type EGFR kinase, 2 μM Tyr04 substrate (Invitrogen, PV3193). The concentration of DMSO after addition of the compound to be tested was 2 vol %.
10 mM drug stock solution was dissolved at room temperature and gradiently diluted to a final concentration of 4-0.002 μM with 8 vol % DMSO solution. […] Then 2.5 μl of ATP was added to initiate the reaction. Wherein, ATP was replaced by the reaction buffer in well C1, no drug was added to well C2, and the phosphorylated substrate was added to well C3 according to the instructions. The mixture was allowed to react at 25° C. in a shaker in dark for 60 min. 5 μL of Development Reagent B (Invitrogen, diluted with TR-FRET dilution buffer) was added and allowed to react at room temperature in the shaker for 60 minutes.
The inhibition rate was calculated according to the following method (refer to the instructions of Invitrogen, PV3193):
1. ER=Coumarin Emission (450 nm)/Fluorescein Emission (520 nm)
The half-inhibitory concentration IC50 was obtained through fitting calculation by using XLFIT 5.0 software (IDBS, UK).

[1] = biological target: T790M/L858R double mutant EGFR kinase (Homo sapiens (Human), UniProt P00533, L858R/T790M); assay: z'-lyte assay of inhibitory activity on T790M/L858R double mutant EGFR kinase; type: biochemical; details: for Selective inhibitory activity against enzymes [IC50 (EGFR WT)/IC50 (T790M/L858R)]: ratio of enzyme IC50 values; for IC50: z'-lyte assay, 25 μM ATP
T790M/L858R double mutant EGFR kinase, sequence (P00533 25-1210 T790M/L858R): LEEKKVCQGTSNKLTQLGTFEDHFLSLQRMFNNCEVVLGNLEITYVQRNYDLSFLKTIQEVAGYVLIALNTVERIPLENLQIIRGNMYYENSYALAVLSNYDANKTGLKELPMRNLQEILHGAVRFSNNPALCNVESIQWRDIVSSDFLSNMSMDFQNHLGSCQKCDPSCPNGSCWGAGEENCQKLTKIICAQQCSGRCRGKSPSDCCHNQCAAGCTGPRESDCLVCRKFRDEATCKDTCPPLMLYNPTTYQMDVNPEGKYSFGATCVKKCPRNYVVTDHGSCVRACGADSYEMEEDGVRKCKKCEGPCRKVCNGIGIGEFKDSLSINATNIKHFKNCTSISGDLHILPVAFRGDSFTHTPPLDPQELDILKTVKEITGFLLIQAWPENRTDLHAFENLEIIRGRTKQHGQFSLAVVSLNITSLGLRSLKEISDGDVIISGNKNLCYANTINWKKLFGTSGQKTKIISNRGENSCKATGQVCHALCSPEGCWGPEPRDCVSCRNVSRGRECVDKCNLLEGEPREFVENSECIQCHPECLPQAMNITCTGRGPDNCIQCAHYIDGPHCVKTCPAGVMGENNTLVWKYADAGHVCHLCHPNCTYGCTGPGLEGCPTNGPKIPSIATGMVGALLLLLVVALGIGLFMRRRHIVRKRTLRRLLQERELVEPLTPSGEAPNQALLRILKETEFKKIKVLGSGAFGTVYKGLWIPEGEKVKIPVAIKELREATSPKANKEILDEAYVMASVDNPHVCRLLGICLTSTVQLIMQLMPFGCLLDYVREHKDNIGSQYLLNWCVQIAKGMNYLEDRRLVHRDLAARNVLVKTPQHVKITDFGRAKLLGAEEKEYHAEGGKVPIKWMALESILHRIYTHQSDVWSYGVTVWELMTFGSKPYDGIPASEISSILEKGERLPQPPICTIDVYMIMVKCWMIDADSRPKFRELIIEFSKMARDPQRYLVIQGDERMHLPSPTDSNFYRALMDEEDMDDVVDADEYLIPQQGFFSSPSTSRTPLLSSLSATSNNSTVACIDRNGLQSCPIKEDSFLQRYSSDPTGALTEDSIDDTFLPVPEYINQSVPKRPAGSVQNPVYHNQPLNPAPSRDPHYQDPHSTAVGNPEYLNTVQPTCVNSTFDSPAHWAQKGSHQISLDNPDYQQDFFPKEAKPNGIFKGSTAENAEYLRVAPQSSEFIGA

[2] = biological target: EGFR phosphorylation in H1975 (EGFR T790M mutant) cells (Homo sapiens (Human), UniProt P00533, L858R/T790M); assay: Inhibition of EGFR phosphorylation in H1975 cells (ELISA); type: cell-based; details: for IC50: ELISA of EGFR phosphorylation, 1 h compound treatment, read-out: H1975 cell (IC50/μM); for Selective inhibitory activity against targets at the cell level [IC50 (A431 cell)/IC50 (H1975 cell)]: ratio of ELISA IC50 values;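 as to all read-outs here: Phospho-EGFR in cell lysates measured by capture-antibody ELISA with TMB substrate after compound exposure, cells given DMSO alone (0.5% final) serving as control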
EGFR phosphorylation in H1975 (EGFR T790M mutant) cells, sequence (P00533 25-1210 T790M/L858R): as above
Protocol: (§5) In the following methods, the reagents used, the preparation methods of solutions, the cell treatment and the preparation steps of the lysis solution, as well as the ELISA assay steps, were carried out according to the instructions of R&D DYC3570, R&D DYC1095E and R&D DYC1095BE.
(§6) Cell lysis solution: Cell lysis buffer+10 μg/mL Aprotinin (Sigma)+10 μg/mL Leupeptin (Sigma), prepared on site.
(§7) Wash buffer: PBS buffer containing 0.05% (v/v) Tween-20.
(§8) Blocking solution: PBS buffer containing 1% (w/v) BSA.
(1) H1975 cells (purchased from the Cell Bank of the Type Culture Collection Committee, Chinese Academy of Sciences) were seeded into 96-well plates at a density of 1×10^4/well, each cell containing 90 μl of RPMI1640 medium with 10% (V/V) FBS, and cultured overnight at 37° C. in 5% (v/v) CO2.
(2) The compounds to be tested were diluted in accordance with the drug dilution method in the MTT assay. 10 μL of the diluted compound or diluted DMSO was added to the corresponding wells of the cell culture plate, and the final concentration of DMSO was 0.5% (V/V). The plate was cultured at 37° C. in 5% (v/v) CO2 for 1 h. The cell culture system treated with DMSO alone was used as cell control.
(3) The medium was removed and then 100 μL of cell lysis solution was added. The plate was sealed and placed in a refrigerator at −80° C. overnight. The cell lysis buffer was used as blank control.
The assay was conducted according to the instructions given in R&D DYC1095E or R&D DYC1095BE.
(1) R&D capture antibody ((DYC1095BE or DYC1095E)) was diluted with PBS in the proportion of 1:180.
(§9) (2) The plate was washed 3 times with 360 μL of the wash buffer.
(3) 300 μL of the blocking solution was added and the plate was incubated at 25° C. with shaking for 2 hours.
(4) The plate was washed 3 times with 360 μL of the wash buffer.
(§10) (5) 40 μL of cell lysis buffer and 60 μL of cell lysis solution were added and the plate was incubated at 25° C. with shaking for 2 hours.
(§11) (6) The plate was washed 3 times with 360 μL of the wash buffer.
(§12) (7) The detection antibody was diluted with the detection antibody diluent in the proportion specified in the instructions of the kit. 100 μL of the diluted antibody was added to each well and the plate was incubated at 25° C. with shaking in dark for 1 h.
(8) The plate was washed 3 times with 360 μL of wash buffer.
(9) A reagent and B reagent in the TMB substrate (R&D DY999) were mixed in 1:1. 100 μL of the mixture was added to each well and incubated in dark at 25° C. with shaking for 20 min.
(§13) (10) 50 μL of 2N H2SO4 was added to each well.
(11) The plate was read with a microplate reader (Thermo Multiskan K3). OD 450 values and OD570 values of the cell control, blank control, and drug treatment wells were measured. ODcell, ODblank and ODdrug treatment were obtained by subtracting the corresponding OD570 value from the OD 450 value of the same well.
2.3 Data Analysis Inhibition rate (%)=100%×(ODcell−ODdrug treatment)/(ODcell−ODblank)

[3] = biological target: EGFR phosphorylation in A431 (EGFR wild-type) cells (Homo sapiens (Human), UniProt P00533); assay: Inhibition of EGFR phosphorylation in A431 cells (ELISA); type: cell-based; details: 1 h compound treatment, EGF stimulation, read-out: A431 cell (IC50/μM)
EGFR phosphorylation in A431 (EGFR wild-type) cells, sequence (P00533 25-1210): as the sequence (P00533 25-1210) above
Protocol: as §5
I. Reagents and Solutions
as §6, §7, §8
3.1 A431 Cell Treatment and Testing Procedures
(1) A431 cells (purchased from the Cell Bank of the Type Culture Collection Committee, Chinese Academy of Sciences) were seeded in 96-well plates at a density of 1×10^4/well in 90 μl of DMEM medium containing 10% FBS and cultured at 37° C. in 5% CO2 overnight.
(2) The A431 cell culture medium was replaced with 90 μl of serum-free DMEM medium and the plate was cultured overnight.
(3) The compound to be tested was diluted according to the drug dilution method in MTT assay. 10 μL of the diluted compound or diluted DMSO was added to the corresponding wells of the cell culture plate, and the final concentration of DMSO was 0.5%. The plate was cultured at 37° C. in 5% CO2 for 1 hour. […] The cells without EGF and drug treatment were used as cell control, and the cells treated with EGF without drugs were used as EGF control.
(4) The medium was removed and then 100 μL of the cell lysis solution was added. The plate was sealed and placed in a refrigerator at −80° C. overnight.
The assay was conducted according to the instructions given in R&D DYC3570E.
(1) R&D capture antibody (DYC3570E) was diluted with PBS in the proportion of 1:180.
as §9
(3) 200 μL of the blocking solution was added and the plate was incubated at 25° C. with shaking for 2 hours.
(4) The plate was washed 3 times with 360 μL of wash buffer.
as §10, §11, §12
(8) The plate was washed 3 times with 360 μL of the wash buffer.
(9) A reagent and B reagent in TMB substrate (R&D DY999) were mixed in 1:1. 100 μL of the mixture was added to each well and incubated in dark at 25° C. with shaking for 20 min.
as §13
(11) The plate was read with a microplate reader (Thermo Multiskan K3). OD 450 values and OD570 values of the cell control, blank control, and drug treatment wells were measured. ODEGF, ODdrug and ODcell were obtained by subtracting the corresponding OD570 value from the OD 450 value of the same well.
3.3 Data Analysis Inhibition rate (%)=100%×(ODEGF−ODdrug)/(ODEGF−ODcell)

A431 cells = assay: Cell growth inhibition by MTT assay, A431 cells; type: cell-based
Protocol: as §1, §2, §3, §4

## CN(C)C/C=C/C(=O)Nc1cc2c(Nc3ccc(F)c(Cl)c3)ncnc2cc1O[C@H]1CCOC1 [BIBW2992, alfatinib, reference compound]
H1975 cells; Homo sapiens, NCI-H1975
  IC50: 0.088 µM
NIH3T3 cells; Mus musculus, NIH3T3, 72 hours
  IC50: 2.75 µM

## C=CC(=O)Nc1cc(Nc2ncc3ccc(-c4cnn(C)c4)n3n2)c(OC)cc1N(C)CCN(C)C [Compound J-1, N-(2-((2-(dimethylamino)ethyl)(methyl)amino)-4-methoxy-5-(7-(1-methyl-1H-pyrazol-4-yl)pyrrolo[1,2-f][1,2,4]triazin-2-ylamino)phenyl)acrylamide]
wild-type EGFR kinase
  IC50: 0.004 µM
H1975 cells
  IC50: < 0.00457 µM
  Selective inhibitory activity against cell growth [IC50 (A431 cell)/IC50 (H1975 cell)]: 71.6
[1]
  Selective inhibitory activity against enzymes [IC50 (EGFR WT)/IC50 (T790M/L858R)]: 4
  IC50: 0.001 µM
[2]
  IC50: 0.012 µM
  Selective inhibitory activity against targets at the cell level [IC50 (A431 cell)/IC50 (H1975 cell)]: 9.3
[3]
  IC50: 0.112 µM
NIH3T3 cells; 72 hours
  IC50: 4.83 µM
A431 cells; 72 hours
  IC50: 0.327 µM

## C=CC(=O)Nc1cc(Nc2ncc3ccc(-c4cnn(C)c4)n3n2)c(OC)cc1N1CCC(N(C)C)CC1 [Compound J-2, N-(2-(4-(dimethylamino)piperidin-1-yl)-4-methoxy-5-(7-(1-methyl-1H-pyrazol-4-yl)pyrrolo[1,2-f][11,2,4]triazin-2-ylamino)phenyl)acrylamide]
wild-type EGFR kinase
  IC50: 0.023 µM
H1975 cells
  IC50: 0.011 µM
  Selective inhibitory activity against cell growth [IC50 (A431 cell)/IC50 (H1975 cell)]: 36.6
[1]
  Selective inhibitory activity against enzymes [IC50 (EGFR WT)/IC50 (T790M/L858R)]: 11.5
  IC50: 0.002 µM
[2]
  IC50: 0.025 µM
  Selective inhibitory activity against targets at the cell level [IC50 (A431 cell)/IC50 (H1975 cell)]: 12.1
[3]
  IC50: 0.303 µM
NIH3T3 cells; 72 hours
  IC50: 5.46 µM
A431 cells; 72 hours
  IC50: 0.403 µM

## C=CC(=O)Nc1cc(Nc2ncc3ccc(-c4cnn(C)c4)n3n2)c(OC)cc1OCCN(C)C [Compound J-3, N-(2-(2-(dimethylamino)ethoxyl)-4-methoxy-5-(7-(1-methyl-1H-pyrazol-4-yl)pyrrolo[1,2-f][1,2,4]triazin-2-ylamino)phenyl)acrylamide]
wild-type EGFR kinase
  IC50: 0.01 µM
H1975 cells
  IC50: 0.008 µM
  Selective inhibitory activity against cell growth [IC50 (A431 cell)/IC50 (H1975 cell)]: 21
[1]
  Selective inhibitory activity against enzymes [IC50 (EGFR WT)/IC50 (T790M/L858R)]: 10
  IC50: 0.001 µM
[2]
  IC50: 0.001 µM
  Selective inhibitory activity against targets at the cell level [IC50 (A431 cell)/IC50 (H1975 cell)]: 93
[3]
  IC50: 0.093 µM
NIH3T3 cells; 72 hours
  IC50: 3.91 µM
A431 cells; 72 hours
  IC50: 0.168 µM

## C=CC(=O)Nc1cc(Nc2ncc3ccc(-c4cnn(C)c4)n3n2)c(OC)cc1N1CCN(C)CC1 [Compound J-4, N-(4-methoxy-5-(7-(1-methyl-1H-pyrazol-4-yl)pyrrolo[1,2-f][1,2,4]triazin-2-ylamino)-2-(4-methyl-1-yl)phenyl)acrylamide]
wild-type EGFR kinase
  IC50: 0.035 µM
H1975 cells
  IC50: 0.014 µM
  Selective inhibitory activity against cell growth [IC50 (A431 cell)/IC50 (H1975 cell)]: 32.9
[1]
  Selective inhibitory activity against enzymes [IC50 (EGFR WT)/IC50 (T790M/L858R)]: 17.5
  IC50: 0.002 µM
[2]
  IC50: 0.004 µM
  Selective inhibitory activity against targets at the cell level [IC50 (A431 cell)/IC50 (H1975 cell)]: 450
[3]
  IC50: 1.8 µM
NIH3T3 cells; 72 hours
  IC50: 3.65 µM
A431 cells; 72 hours
  IC50: 0.461 µM

## C=CC(=O)Nc1cc(Nc2ncc3ccc(C4=CCCCC4)n3n2)c(OC)cc1N(C)CCN(C)C [Compound J-5, N-(5(7-cyclohexenyl-pyrrolo[1,2-f][1,2,4]triazin-2-ylamino)-2-((2-(dimethylamino)ethyl)(methyl)amino)-4-methoxyphenyl)acrylamide]
wild-type EGFR kinase
  IC50: 0.009 µM
H1975 cells
  IC50: 0.023 µM
  Selective inhibitory activity against cell growth [IC50 (A431 cell)/IC50 (H1975 cell)]: 15.4
[1]
  Selective inhibitory activity against enzymes [IC50 (EGFR WT)/IC50 (T790M/L858R)]: 3
  IC50: 0.003 µM
[2]
  IC50: 0.106 µM
  Selective inhibitory activity against targets at the cell level [IC50 (A431 cell)/IC50 (H1975 cell)]: 2
[3]
  IC50: 0.208 µM
NIH3T3 cells; 72 hours
  IC50: 2.82 µM
A431 cells; 72 hours
  IC50: 0.354 µM

## C=CC(=O)Nc1cc(Nc2ncc3ccc(-c4cnc5c(ccn5C)c4)n3n2)c(OC)cc1N(C)CCN(C)C [Compound J-7, N-(2-((2-(dimethylamino)ethyl)(methyl)amino)-4-methoxy-5-(7-(1-methyl-1H-pyrrolo[2,3-b]pyridin-5-yl)pyrrolo[1,2-f][1,2,4]triazin-2-ylamino)phenyl)acrylamide]
wild-type EGFR kinase
  IC50: 0.005 µM
H1975 cells
  IC50: 0.01 µM
  Selective inhibitory activity against cell growth [IC50 (A431 cell)/IC50 (H1975 cell)]: 23.1
[1]
  Selective inhibitory activity against enzymes [IC50 (EGFR WT)/IC50 (T790M/L858R)]: 2.5
  IC50: 0.002 µM
NIH3T3 cells; 72 hours
  IC50: 3.38 µM
A431 cells; 72 hours
  IC50: 0.231 µM

## C=CC(=O)Nc1cc(Nc2ncc3ccc(C4CC4)n3n2)c(OC)cc1N(C)CCN(C)C [Compound J-8, N-(5(7-cyclopropylpyrrolo[1,2-f][1,2,4]triazin-2-ylamino)-2-((2-(dimethylamino)ethyl)(methyl)amino)-4-methoxyphenyl)acrylamide]
wild-type EGFR kinase
  IC50: 0.112 µM
H1975 cells
  IC50: 0.097 µM
  Selective inhibitory activity against cell growth [IC50 (A431 cell)/IC50 (H1975 cell)]: 32.9
[1]
  Selective inhibitory activity against enzymes [IC50 (EGFR WT)/IC50 (T790M/L858R)]: 56
  IC50: 0.002 µM
[2]
  IC50: 0.163 µM
  Selective inhibitory activity against targets at the cell level [IC50 (A431 cell)/IC50 (H1975 cell)]: 3
[3]
  IC50: 0.495 µM
A431 cells; 72 hours
  IC50: 3.19 µM

## C=CC(=O)Nc1cc(Nc2ncc3ccc(-c4cnc5ccccc5c4)n3n2)c(OC)cc1N(C)CCN(C)C [Compound J-10, N-(2-((2-(dimethylamino)ethyl)(methyl)amino)-4-methoxy-5-(7-(quinolin-3-yl)pyrrolo[1,2-f][1,2,4]triazin-2-ylamino)phenyl)acrylamide]
wild-type EGFR kinase
  IC50: 0.003 µM
H1975 cells
  IC50: 0.009 µM
  Selective inhibitory activity against cell growth [IC50 (A431 cell)/IC50 (H1975 cell)]: 16.3
[1]
  Selective inhibitory activity against enzymes [IC50 (EGFR WT)/IC50 (T790M/L858R)]: 3
  IC50: 0.001 µM
NIH3T3 cells; 72 hours
  IC50: 3.27 µM
A431 cells; 72 hours
  IC50: 0.147 µM

## C=CC(=O)Nc1cc(Nc2ncc3ccc(C)n3n2)c(OC)cc1N1CCC(N(C)C)CC1 [Compound J-14, N-(2-(4-(dimethylamino)piperidin-1-yl)-4-methoxy-5-(7-methylpyrrolo[1,2-f][1,2,4]triazin-2-ylamino)phenyl)acrylamide]
H1975 cells
  IC50: 0.126 µM
NIH3T3 cells; 72 hours
  IC50: 7.77 µM
A431 cells; 72 hours
  IC50: 3.56 µM

## C=CC(=O)Nc1cc(Nc2ncc3ccc(C4CC4)n3n2)c(OC)cc1N1CCC(N(C)C)CC1 [Compound J-15, N-(5(7-cyclopropylpyrrolo[1,2-f][1,2,4]triazin-2-ylamino)-2-(4-(dimethylamino)piperidin-1-yl)-4-methoxyphenyl)acrylamide]
wild-type EGFR kinase
  IC50: > 1 µM
[1]
  Selective inhibitory activity against enzymes [IC50 (EGFR WT)/IC50 (T790M/L858R)]: 3.8
  IC50: 0.262 µM

## C=CC(=O)Nc1cc(Nc2cn3c(-c4ccn(C)c4)cnc3cn2)c(OC)cc1N(C)CCN(C)C [Compound J-16, N-(2-((2-(dimethylamino)ethyl)(methyl)amino)-4-methoxy-5-(3(1-methyl-1H-pyrrol-3-yl)imidazo[1,2-a]pyrazin-6-ylamino)phenyl)acrylamide]
H1975 cells; Homo sapiens, NCI-H1975
  IC50: 0.388 µM
H1975 cells
  Selective inhibitory activity against cell growth [IC50 (A431 cell)/IC50 (H1975 cell)]: 3
[2]
  IC50: 0.171 µM
  Selective inhibitory activity against targets at the cell level [IC50 (A431 cell)/IC50 (H1975 cell)]: 1.2
[3]
  IC50: 0.211 µM
NIH3T3 cells; Mus musculus, NIH3T3, 72 hours
  IC50: > 10 µM
A431 cells; Homo sapiens, A-431, 72 hours
  IC50: 1.15 µM

## C=CC(=O)Nc1cc(Nc2cn3c(-c4cccnc4)cnc3cn2)c(OC)cc1N(C)CCN(C)C [Compound J-17, N-(2-((2-(dimethylamino)ethyl)(methyl)amino)-4-methoxy-5-(3(pyridin-3-yl)imidazo[1,2-a]pyrazin-6-ylamino)phenyl)acrylamide]
H1975 cells; Homo sapiens, NCI-H1975
  IC50: 0.424 µM
H1975 cells
  Selective inhibitory activity against cell growth [IC50 (A431 cell)/IC50 (H1975 cell)]: 7
[2]
  IC50: 0.734 µM
  Selective inhibitory activity against targets at the cell level [IC50 (A431 cell)/IC50 (H1975 cell)]: 1.6
[3]
  IC50: 1.16 µM
NIH3T3 cells; Mus musculus, NIH3T3, 72 hours
  IC50: > 10 µM
A431 cells; Homo sapiens, A-431, 72 hours
  IC50: 2.95 µM

## C=CC(=O)Nc1cc(Nc2cn3c(-c4cnn(C)c4)cnc3cn2)c(OC)cc1N(C)CCN(C)C [Compound J-18, N-(2-((2-(dimethylamino)ethyl)(methyl)amino)-4-methoxy-5-(3(-methyl-1H-pyrazol-4-yl)imidazo[1,2-α]pyrazin-6-ylamino)phenyl)acrylamide]
H1975 cells
  IC50: 0.251 µM
  Selective inhibitory activity against cell growth [IC50 (A431 cell)/IC50 (H1975 cell)]: 6.2
NIH3T3 cells; 72 hours
  IC50: > 10 µM
A431 cells; 72 hours
  IC50: 1.56 µM

## C=CC(=O)Nc1cc(Nc2cn3c(-c4cnn(C)c4)cnc3cn2)c(OC)cc1N1CCC(N(C)C)CC1 [Compound J-19, N-(2-(4-(dimethylamino)piperidin-1-yl)-4-methoxy-5-(3(1-methyl-1H-pyrazol-4-yl)imidazo[1,2-α]pyrazinyl 6-amino)phenyl)acrylamide]
H1975 cells
  IC50: 0.243 µM
  Selective inhibitory activity against cell growth [IC50 (A431 cell)/IC50 (H1975 cell)]: 5
[2]
  IC50: 0.289 µM
  Selective inhibitory activity against targets at the cell level [IC50 (A431 cell)/IC50 (H1975 cell)]: 1.13
[3]
  IC50: 0.327 µM
NIH3T3 cells; 72 hours
  IC50: > 10 µM
A431 cells; 72 hours
  IC50: 1.21 µM

## C=CC(=O)Nc1cc(Nc2ncc3c(C)cc(-c4cnn(C)c4)n3n2)c(OC)cc1N(C)CCN(C)C [Compound J-20, N-(2-((2-(dimethylamino)ethyl)(methyl)amino)-4-methoxy-5-(5-methyl-7-(1-methyl-1H-pyrazol-4-yl)pyrrolo[1,2-F][1,2,4]triazin-2-ylamino)phenyl)acrylamide]
wild-type EGFR kinase
  IC50: 0.294 µM
[1]
  Selective inhibitory activity against enzymes [IC50 (EGFR WT)/IC50 (T790M/L858R)]: 24.5
  IC50: 0.012 µM

## C=CC(=O)Nc1cc(Nc2ncc3c(C)cc(-c4cnn(C)c4)n3n2)c(OC)cc1N1CCC(N(C)C)CC1 [Compound J-21, N-(2-(4-(dimethylamino)piperidin-1-yl)-4-methoxy-5-(5-methyl-7-(1-methyl-1H-pyrazol-4-yl)pyrrolo[1,2-F][1,2,4]triazin-2-ylamino)phenyl)acrylamide]
wild-type EGFR kinase
  IC50: > 1 µM
[1]
  Selective inhibitory activity against enzymes [IC50 (EGFR WT)/IC50 (T790M/L858R)]: 3.4
  IC50: 0.294 µM
